# Results published in patent US10344026B2, “Compositions and methods of targeting mutant K-ras” (NANTBIO, INC., priority 2017, dated 2019).
# How the values were obtained:
# Type in all cases: cell-based
# [1] = tested on: phospho-Akt in Panc1 (G12D); experiment: In-Cell Western phospho-Akt, Panc1; details: Homo sapiens, PANC-1, 1 h; Panc1, one hour treatment; read-out: In-Cell Western Panc1 (G12D) Akt (P)
# In short: (§1)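 In-cell immunofluorescence: after 1 h compound exposure (final DMSO 0.5%) of cells plated 18 h beforehand, fixed cells were probed overnight at 4 °C with phospho-Akt/phospho-ERK antibodies and imaged. Maximal inhibition defined by 1 uM MEK Inhibitor II for pERK, 1 uM BEZ235 for pAkt; EC50 calculated.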
# [2] = tested on: phospho-ERK in Panc10.05 (G12D); experiment: In-Cell Western phospho-ERK, Panc10.05; details: Homo sapiens, Panc1005, 1 h; Panc10.05, one hour treatment; read-out: In-Cell Western Panc10.05 (G12D) Erk (P)
# In short: as §1
# [3] = tested on: phospho-Akt in A375 (Wild-type); experiment: In-Cell Western phospho-Akt, A375; details: Homo sapiens, A-375, 1 h; A375, one hour treatment; read-out: In-Cell Western A375 (Wild-type) Akt (P)
# Description: (§2) In-cell phosphorylation assays for Erk and Akt were performed on several of the compounds and exemplary results are shown in Table 3 below using HCC827 and A375 cell lines for wild type K-Ras and Panc1 and Panc10.05 cell lines for G12D K-Ras mutants. Results are expressed in μM and corresponding structures are shown in FIGS. 2A-2G and Examples 1-152, above.
# (§3) Cells are seeded in complete medium into black sided, clear-bottom 384-well microplates at 3000 cells/[…]/well. Plates are returned to 37° C. CO2 incubator for 18 hr. Drug is made as 200× in DMSO and diluted into medium to 10×. To each well is added 4 ul 10× test article or controls, and plates are returned to the incubator. Final assay DMSO concentration is 0.5%. After one hour, cells are fixed in formaldehyde, rinsed & permeabilized with triton X-100, and blocked with BSA/Goat serum blocking solution. Primary phospho-Akt and phospho-ERK antibodies are added and plates are incubated overnight at 4° C. Plates are rinsed with Tween-20 wash buffer and secondary antibody (Goat anti-rabbit, Thermofisher) is added. After 2 hours, plates are rinsed in Tween-20 wash buffer, and then PBS. Plates are imaged on the Celigo (Nexcelom) and cellular fluorescence is quantitated. Full inhibition of phospho-Akt is achieved with 1 uM BEZ235 (Sellekchem), while full inhibition of phospho-ERK is achieved with 1 uM MEK Inhibitor II Calbiochem). EC50 values are calculated using Graphpad Prism.
# [4] = tested on: HCC827 (K-Ras wild type cell line); experiment: Viability assay (CellTiterBlue, 72 hr) HCC827; details: Homo sapiens, GI50, CellTiterBlue, HCC827 K-Ras wild-type
# In short: (§4)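 Fluorescence at Ex550/Em590, read 3 hr after CellTiterBlue addition, served as the viability signal following 72 hr compound treatment. Wells held 1000 cells, pre-incubated 18 hr at 37 °C, with 0.5% DMSO final. GI50 derived with DMSO as 100% and 100 uM tamoxifen as 0% viability.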
# [5] = tested on: phospho-ERK in A375 (Wild-type); experiment: In-Cell Western phospho-ERK, A375; details: Homo sapiens, A-375, 1 h; A375, one hour treatment; read-out: In-Cell Western A375 (Wild-type) Erk (P)
# Description: as §2, §3
# [6] = tested on: phospho-Akt in Panc10.05 (G12D); experiment: In-Cell Western phospho-Akt, Panc10.05; details: Homo sapiens, Panc1005, 1 h; Panc10.05, one hour treatment; read-out: In-Cell Western Panc10.05 (G12D) Akt (P)
# Description: as §2, §3
# [7] = tested on: Panc1-G12D; experiment: Viability assay (CellTiterBlue, 72 hr) Panc1; details: Homo sapiens, PANC-1, GI50, CellTiterBlue, Panc1 K-Ras G12D, read-out: 72 hr Cell Viability Panc1 (G12D)
# In short: as §4
# [8] = tested on: Panc10.05-G12D; experiment: Viability assay (CellTiterBlue, 72 hr) Panc10.05; details: Homo sapiens, Panc1005, GI50, CellTiterBlue, Panc10.05 K-Ras G12D, read-out: 72 hr Cell Viability Panc10.05 (G12D)
# In short: as §4
# [9] = tested on: phospho-ERK in HCC827 (Wild-type); experiment: In-Cell Western phospho-ERK, HCC827; details: Homo sapiens, 1 h; HCC827, one hour treatment; read-out: In-Cell Western HCC827 (Wild-type) Erk (P)
# Description: as §2, §3
# [10] = tested on: phospho-ERK in Panc1 (G12D); experiment: In-Cell Western phospho-ERK, Panc1; details: Homo sapiens, PANC-1, 1 h; Panc1, one hour treatment; read-out: In-Cell Western Panc1 (G12D) Erk (P)
# In short: as §1
# [11] = tested on: U87-MG (K-Ras wild type cell line); experiment: Viability assay (CellTiterBlue, 72 hr) U87-MG; details: Homo sapiens, U-87 MG, GI50, CellTiterBlue, U87-MG K-Ras wild-type
# In short: as §4
# [12] = tested on: HCT116-G31D; experiment: Viability assay (CellTiterBlue, 72 hr) HCT116; details: Homo sapiens, HCT-116, GI50, CellTiterBlue, HCT116 K-Ras G13D, read-out: 72 hr Cell Viability HCT116 (G13D)
# In short: as §4
# [13] = tested on: Ishikawa (K-Ras wild type cell line); experiment: Viability assay (CellTiterBlue, 72 hr) Ishikawa; details: Homo sapiens, GI50, CellTiterBlue, Ishikawa K-Ras wild-type
# In short: as §4
# [14] = tested on: A375 (K-Ras wild type cell line); experiment: Viability assay (CellTiterBlue, 72 hr) A375; details: Homo sapiens, A-375, GI50, CellTiterBlue
# Description: Viability assays were performed on exemplary compounds and Table 2 below lists exemplary results for selected compounds tested on K-Ras wild type cell lines (Ishikawa, U87-MG, HCC827, and A375) and various K-Ras mutant cell lines (Panc1-G12D; Panc10.05-G12D; HCT116-G31D). Results are expressed in μM and corresponding structures are shown in FIGS. 2A-2G and Examples 1-152, above.
# Cells are counted and seeded at 1000 cells/36 ul medium/well into 384-well microplates. Cells are returned to 37° C. CO2 incubator for 18 hr. Drug is made as 200× in DMSO and diluted into medium to 10×. To each well is added 4 ul 10× drug, and plates are returned to the incubator. Final assay DMSO concentration is 0.5%. After 72 hr, 8 ul CellTiterBlue (Promega) is added to each well. After 3 hr, fluorescence (Ex550/Em590) is determined on the Victor Plate Reader (Perkin Elmer). Assay range is determined by DMSO control (100% viability) and 100 uM tamoxifen (0% viability). GI50 values are calculated using Graphpad Prism.
SMILES,EC50 [1] [µM],EC50 [2] [µM],EC50 [3] [µM],IC50 [4] [µM],EC50 [5] [µM],EC50 [6] [µM],IC50 [7] [µM],IC50 [8] [µM],EC50 [9] [µM],EC50 [10] [µM],IC50 [11] [µM],IC50 [12] [µM],IC50 [13] [µM],IC50 [14] [µM]
"Cc1nc(C)c(C(=O)Nc2nc(-c3ccc4c(c3)CCC(=O)N4Cc3cccnc3C#N)cs2)o1 [Compound 94, N-(4-(1-((2-cyanopyridin-3-yl)methyl)-2-oxo-1,2,3,4-tetrahydroquinolin-6-yl)thiazol-2-yl)-2,4-dimethyloxazole-5-carboxamide]",> 25,> 25,> 25,> 25,> 25,> 25,> 25,> 25,> 25,> 25,> 25,> 25,> 25,> 25
"Cc1nc(C)c(C(=O)Nc2nc(-c3ccc4c(c3)CCC(=O)N4CCCN(C)C)cs2)o1 [Compound 98, N-(4-(1-(3-(dimethylamino)propyl)-2-oxo-1,2,3,4-tetrahydroquinolin-6-yl)thiazol-2-yl)-2,4-dimethyloxazole-5-carboxamide]",> 25,> 25,> 25,5,> 25,> 25,13,> 25,> 25,> 25,> 25,> 25,11,9
"Cc1nc(C(=O)Nc2nc(-c3ccc4c(c3)CCC(=O)N4)cs2)c(C)s1 [Compound 20, 2,5-dimethyl-N-(4-(2-oxo-1,2,3,4-tetrahydroquinolin-6-yl)thiazol-2-yl)thiazole-4-carboxamide]",> 25,> 25,> 25,> 25,> 25,> 25,> 25,> 25,> 25,> 25,> 25,> 25,> 25,> 25
"Cn1nc(-c2ccccc2)cc1C(=O)Nc1nc(-c2ccc3c(c2)CCC(=O)N3)cs1 [Compound 48, 1-methyl-N-(4-(2-oxo-1,2,3,4-tetrahydroquinolin-6-yl)thiazol-2-yl)-3-phenyl-1H-pyrazole-5-carboxamide]",> 25,> 25,> 25,> 25,> 25,> 25,> 25,> 25,> 25,> 25,> 25,> 25,> 25,> 25
"O=C1CCc2cc(-c3csc(NC(=O)c4ccnn4-c4ccccc4)n3)ccc2N1 [Compound 47, N-(4-(2-oxo-1,2,3,4-tetrahydroquinolin-6-yl)thiazol-2-yl)-1-phenyl-1H-pyrazole-5-carboxamide]",> 25,> 25,> 25,> 25,> 25,> 25,> 25,> 25,> 25,> 25,> 25,> 25,> 25,> 25
"CCc1nc(C)c(C(=O)Nc2nc(-c3ccc4c(c3)CCC(=O)N4Cc3cncnc3)cs2)o1 [Compound 104, 2-ethyl-4-methyl-N-(4-(2-oxo-1-(pyrimidin-5-ylmethyl)-1,2,3,4-tetrahydroquinolin-6-yl)thiazol-2-yl)oxazole-5-carboxamide]",> 25,> 25,> 25,> 25,> 25,> 25,22,17,> 25,> 25,> 25,5,> 25,6
